Test system: recombinant NL4-3 virus (Renilla luciferase in nef, Gag P373S; NLRluc) in MT-2 cells
Test: whole plant or invertebrate
Assay type: cell-based, HIV
Conditions: Renilla, NL43, luciferase activity in cells infected for 4-5 days with NLRluc recombinants, serial dilutions of inhibitor; class symbols (key in Table 1); read-out: EC50
Summary of the method: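 Luciferase signal is the read-out: after 4-5 days of infection in the presence of serially diluted compound, MT-2 cells are lysed with a premix of lysis buffer, luciferase reagent and Stop & Glo substrate, and luminescence is read immediately.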

SMILES | EC50 [µM]
C=C(C)[C@@H]1CC[C@]2(NC(=O)N3CCNCC3)CC[C@]3(C)[C@H](CC[C@@H]4[C@@]5(C)CC=C(c6ccc(C(=O)O)cc6)C(C)(C)[C@@H]5CC[C@]43C)[C@@H]12 [Example 45, 4-((1R,3aS,5aR,5bR,7aR,11aS,11bR,13aR,13bR)-5a,5b,8,8,11a-pentamethyl-3a-(piperazine-1-carboxamido)-1-(prop-1-en-2-yl)-2,3,3a,4,5,5a,5b,6,7,7a,8,11,11a,11b,12,13,13a,13b-octadecahydro-1H-cyclopenta[a]chrysen-9-yl)benzoic acid] | < 0.1
C=C(C)[C@@H]1CC[C@]2(NC(=O)N(C)CCCN(C)C)CC[C@]3(C)[C@H](CC[C@@H]4[C@@]5(C)CC=C(c6ccc(C(=O)O)cc6)C(C)(C)[C@@H]5CC[C@]43C)[C@@H]12 [Example 46, 4-((1R,3aS,5aR,5bR,7aR,11aS,11bR,13aR,13bR)-3a-(3-(3-(dimethylamino)propyl)-3-methylureido)-5a,5b,8,8,11a-pentamethyl-1-(prop-1-en-2-yl)-2,3,3a,4,5,5a,5b,6,7,7a,8,11,11a,11b,12,13,13a,13b-octadecahydro-1H-cyclopenta[a]chrysen-9-yl)benzoic acid] | < 0.1
C=C(C)[C@@H]1CC[C@]2(NC(=O)NCCNS(C)(=O)=O)CC[C@]3(C)[C@H](CC[C@@H]4[C@@]5(C)CC=C(c6ccc(C(=O)O)cc6)C(C)(C)[C@@H]5CC[C@]43C)[C@@H]12 [Example 47, 4-((1R,3aS,5aR,5bR,7aR,11aS,11bR,13aR,13bR)-5a,5b,8,8,11a-pentamethyl-3a-(3-(2-(methylsulfonamido)ethyl)ureido)-1-(prop-1-en-2-yl)-2,3,3a,4,5,5a,5b,6,7,7a,8,11,11a,11b,12,13,13a,13b-octadecahydro-1H-cyclopenta[a]chrysen-9-yl)benzoic acid] | < 0.1
C=C(C)[C@@H]1CC[C@]2(NC(=O)N(C)CCn3ccc4ccccc43)CC[C@]3(C)[C@H](CC[C@@H]4[C@@]5(C)CC=C(c6ccc(C(=O)O)cc6)C(C)(C)[C@@H]5CC[C@]43C)[C@@H]12 [Example 48, 4-((1R,3aS,5aR,5bR,7aR,11aS,11bR,13aR,13bR)-3a-(3-(2-(1H-indol-1-yl)ethyl)-3-methylureido)-5a,5b,8,8,11a-pentamethyl-1-(prop-1-en-2-yl)-2,3,3a,4,5,5a,5b,6,7,7a,8,11,11a,11b,12,13,13a,13b-octadecahydro-1H-cyclopenta[a]chrysen-9-yl)benzoic acid] | < 0.1
C=C(C)[C@@H]1CC[C@]2(NC(=O)NCCCN(C)S(C)(=O)=O)CC[C@]3(C)[C@H](CC[C@@H]4[C@@]5(C)CC=C(c6ccc(C(=O)O)cc6)C(C)(C)[C@@H]5CC[C@]43C)[C@@H]12 [Example 49, 4-((1R,3aS,5aR,5bR,7aR,11aS,11bR,13aR,13bR)-5a,5b,8,8,11a-pentamethyl-3a-(3-(3-(N-methylmethylsulfonamido)propyl)ureido)-1-(prop-1-en-2-yl)-2,3,3a,4,5,5a,5b,6,7,7a,8,11,11a,11b,12,13,13a,13b-octadecahydro-1H-cyclopenta[a]chrysen-9-yl)benzoic acid] | < 0.1
C=C(C)[C@@H]1CC[C@]2(NC(=O)NCCN(C)S(C)(=O)=O)CC[C@]3(C)[C@H](CC[C@@H]4[C@@]5(C)CC=C(c6ccc(C(=O)O)cc6)C(C)(C)[C@@H]5CC[C@]43C)[C@@H]12 [Example 50, 4-((1R,3aS,5aR,5bR,7aR,11aS,11bR,13aR,13bR)-5a,5b,8,8,11a-pentamethyl-3a-(3-(2-(N-methylmethylsulfonamido)ethyl)ureido)-1-(prop-1-en-2-yl)-2,3,3a,4,5,5a,5b,6,7,7a,8,11,11a,11b,12,13,13a,13b-octadecahydro-1H-cyclopenta[a]chrysen-9-yl)benzoic acid] | < 0.1
C=C(C)[C@@H]1CC[C@]2(NC(=O)N3CCCN(CCO)CC3)CC[C@]3(C)[C@H](CC[C@@H]4[C@@]5(C)CC=C(c6ccc(C(=O)O)cc6)C(C)(C)[C@@H]5CC[C@]43C)[C@@H]12 [Example 51, 4-((1R,3aS,5aR,5bR,7aR,11aS,11bR,13aR,13bR)-3a-(4-(2-hydroxyethyl)-1,4-diazepane-1-carboxamido)-5a,5b,8,8,11a-pentamethyl-1-(prop-1-en-2-yl)-2,3,3a,4,5,5a,5b,6,7,7a,8,11,11a,11b,12,13,13a,13b-octadecahydro-1H-cyclopenta[a]chrysen-9-yl)benzoic acid] | < 0.1
C=C(C)[C@@H]1CC[C@]2(NC(=O)N(CCO)CCN(C)C)CC[C@]3(C)[C@H](CC[C@@H]4[C@@]5(C)CC=C(c6ccc(C(=O)O)cc6)C(C)(C)[C@@H]5CC[C@]43C)[C@@H]12 [Example 52, 4-((1R,3aS,5aR,5bR,7aR,11aS,11bR,13aR,13bR)-3a-(3-(2-(dimethylamino)ethyl)-3-(2-hydroxyethyl)ureido)-5a,5b,8,8,11a-pentamethyl-1-(prop-1-en-2-yl)-2,3,3a,4,5,5a,5b,6,7,7a,8,11,11a,11b,12,13,13a,13b-octadecahydro-1H-cyclopenta[a]chrysen-9-yl)benzoic acid] | < 0.1
C=C(C)[C@@H]1CC[C@]2(NC(=O)N(CCN3CCOCC3)CC(=O)O)CC[C@]3(C)[C@H](CC[C@@H]4[C@@]5(C)CC=C(c6ccc(C(=O)O)cc6)C(C)(C)[C@@H]5CC[C@]43C)[C@@H]12 [Example 53, 4-((1R,3aS,5aR,5bR,7aR,11aS,11bR,13aR,13bR)-3a-(3-(carboxymethyl)-3-(2-morpholinoethyl)ureido)-5a,5b,8,8,11a-pentamethyl-1-(prop-1-en-2-yl)-2,3,3a,4,5,5a,5b,6,7,7a,8,11,11a,11b,12,13,13a,13b-octadecahydro-1H-cyclopenta[a]chrysen-9-yl)benzoic acid] | < 0.1
C=C(C)[C@@H]1CC[C@]2(NC(=O)N3CCN(C)CC3)CC[C@]3(C)[C@H](CC[C@@H]4[C@@]5(C)CC=C(c6ccc(C(=O)O)cc6)C(C)(C)[C@@H]5CC[C@]43C)[C@@H]12 [Example 54, 4-((1R,3aS,5aR,5bR,7aR,11aS,11bR,13aR,13bR)-5a,5b,8,8,11a-pentamethyl-3a-(4-methylpiperazine-1-carboxamido)-1-(prop-1-en-2-yl)-2,3,3a,4,5,5a,5b,6,7,7a,8,11,11a,11b,12,13,13a,13b-octadecahydro-1H-cyclopenta[a]chrysen-9-yl)benzoic acid] | < 0.1
C=C(C)[C@@H]1CC[C@]2(NC(=O)N3CCCNCC3)CC[C@]3(C)[C@H](CC[C@@H]4[C@@]5(C)CC=C(c6ccc(C(=O)O)cc6)C(C)(C)[C@@H]5CC[C@]43C)[C@@H]12 [Example 55, 4-((1R,3aS,5aR,5bR,7aR,11aS,11bR,13aR,13bR)-3a-(1,4-diazepane-1-carboxamido)-5a,5b,8,8,11a-pentamethyl-1-(prop-1-en-2-yl)-2,3,3a,4,5,5a,5b,6,7,7a,8,11,11a,11b,12,13,13a,13b-octadecahydro-1H-cyclopenta[a]chrysen-9-yl)benzoic acid] | < 0.1
C=C(C)[C@@H]1CC[C@]2(NC(=O)N3CCNC(=O)C3CC(=O)O)CC[C@]3(C)[C@H](CC[C@@H]4[C@@]5(C)CC=C(c6ccc(C(=O)O)cc6)C(C)(C)[C@@H]5CC[C@]43C)[C@@H]12 (stereo partly drawn) [Example 56, 4-((1R,3aS,5aR,5bR,7aR,11aS,11bR,13aR,13bR)-3a-(2-(carboxymethyl)-3-oxopiperazine-1-carboxamido)-5a,5b,8,8,11a-pentamethyl-1-(prop-1-en-2-yl)-2,3,3a,4,5,5a,5b,6,7,7a,8,11,11a,11b,12,13,13a,13b-octadecahydro-1H-cyclopenta[a]chrysen-9-yl)benzoic acid] | < 0.1
C=C(C)[C@@H]1CC[C@]2(NC(=O)N3CCNC(=O)C3)CC[C@]3(C)[C@H](CC[C@@H]4[C@@]5(C)CC=C(c6ccc(C(=O)O)cc6)C(C)(C)[C@@H]5CC[C@]43C)[C@@H]12 [Example 57, 4-((1R,3aS,5aR,5bR,7aR,11aS,11bR,13aR,13bR)-5a,5b,8,8,11a-pentamethyl-3a-(3-oxopiperazine-1-carboxamido)-1-(prop-1-en-2-yl)-2,3,3a,4,5,5a,5b,6,7,7a,8,11,11a,11b,12,13,13a,13b-octadecahydro-1H-cyclopenta[a]chrysen-9-yl)benzoic acid] | < 0.1
C=C(C)[C@@H]1CC[C@]2(NC(=O)N(CCN)CC(=O)O)CC[C@]3(C)[C@H](CC[C@@H]4[C@@]5(C)CC=C(c6ccc(C(=O)O)cc6)C(C)(C)[C@@H]5CC[C@]43C)[C@@H]12 [Example 58, 4-((1R,3aS,5aR,5bR,7aR,11aS,11bR,13aR,13bR)-3a-(3-(2-aminoethyl)-3-(carboxymethyl)ureido)-5a,5b,8,8,11a-pentamethyl-1-(prop-1-en-2-yl)-2,3,3a,4,5,5a,5b,6,7,7a,8,11,11a,11b,12,13,13a,13b-octadecahydro-1H-cyclopenta[a]chrysen-9-yl)benzoic acid] | < 0.1
C=C(C)[C@@H]1CC[C@]2(NC(=O)N3CCN(C(=O)OC(C)(C)C)CC3CC(=O)O)CC[C@]3(C)[C@H](CC[C@@H]4[C@@]5(C)CC=C(c6ccc(C(=O)O)cc6)C(C)(C)[C@@H]5CC[C@]43C)[C@@H]12 (stereo partly drawn) [Example 59, 4-((1R,3aS,5aR,5bR,7aR,11aS,11bR,13aR,13bR)-3a-(4-(tert-butoxycarbonyl)-2-(carboxymethyl)piperazine-1-carboxamido)-5a,5b,8,8,11a-pentamethyl-1-(prop-1-en-2-yl)-2,3,3a,4,5,5a,5b,6,7,7a,8,11,11a,11b,12,13,13a,13b-octadecahydro-1H-cyclopenta[a]chrysen-9-yl)benzoic acid] | < 0.1
